Reference: PMC7096398, “Oxytocin Receptors Regulate Social Preference in Zebrafish” (Scientific Reports, 2020)
“Also recorded” adds a separate entry of the source.

Tests used:
rodents = settings: cited from earlier work
Protocol: Intraperitoneal injections were conducted using a 1 mL U-100 BD MicroFine™ Insulin Syringe (Becton Dickinson France S.A.S., France). Post injection, animals were placed into their holding tanks for one hour to recover. […] Following this, focal fish were individually placed in the middle of the test tank and left ...

Oxtrl = target: T1, Oxtrl (Danio rerio, UniProt E4W698); experiment: Inositol phosphate accumulation assay, antagonism of 1 μM zVP at Oxtrl; format: cell-based, zebrafish; settings: stimulated with zVP
T1 construct: host or cells: HEK293
T1 sequence (E4W698 1-382): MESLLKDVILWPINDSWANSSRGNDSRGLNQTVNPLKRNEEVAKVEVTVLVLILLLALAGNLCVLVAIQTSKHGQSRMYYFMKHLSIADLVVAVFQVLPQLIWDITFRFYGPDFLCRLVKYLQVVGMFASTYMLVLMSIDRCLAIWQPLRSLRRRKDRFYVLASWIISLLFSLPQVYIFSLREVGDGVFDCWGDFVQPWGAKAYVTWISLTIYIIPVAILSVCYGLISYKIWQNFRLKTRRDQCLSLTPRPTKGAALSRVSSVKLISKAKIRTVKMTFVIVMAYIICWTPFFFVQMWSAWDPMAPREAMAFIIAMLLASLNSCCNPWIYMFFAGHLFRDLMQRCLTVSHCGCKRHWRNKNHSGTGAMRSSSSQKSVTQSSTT
Protocol: (§1) The receptor constructs were ordered from GeneScript and subcloned into a pcDNA3.1/CT-GFP-TOPO vector. The coding sequences of the GenBank entries NM_001199370.1 (oxtr), NM_001199369.1 (oxtrl), NM_001301114.1 (avpr1aa), and NM_001297676.1 (avpr1ab) were used for synthesis. The stop codons were removed, and an additional […] was added to facilitate hybrid protein expression with GFP in frame from the vector. The GCCACC Kozak sequence was inserted before the start codons. After transformation of the plasmid constructs into TOP10 competent cells (Thermo Fisher Scientific), the Maxiprep (Thermo Fisher Scientific) method was used to amplify the plasmids for transfection.
(§2) The Inositol phosphate accumulation assay was performed according to previous descriptions to measure the potency of different ligands for zebrafish different oxytocin related receptors. Each receptor construct was transfected into HEK293 cells using Lipofectamine 2000 (Thermo Fisher Scientific). Myo2-^3H-inositol (PerkinElmer) at 3 μCi/mL was added the day after transfection. […] Samples were mixed with OptiPhase HiSafe (PerkinElmer Waltham, MA, USA) and ^3H radioactivity was measured with a Tri-Carb 2910TR liquid scintillation counter (PerkinElmer Waltham, MA, USA). […]

OT receptor = settings: cited from earlier work
Excerpt: Intriguingly, the non-peptidergic OT receptor antagonist L-368,8 ...

Avpr1aa = target: T2, Avpr1aa (Danio rerio, UniProt A0A8M1P1H3); experiment: Inositol phosphate accumulation assay, antagonism of 1 μM zVP at Avpr1aa; format: cell-based, zebrafish; settings: stimulated with agonist; antagonist up to 1 μM
T2 sequence (A0A8M1P1H3 1-379): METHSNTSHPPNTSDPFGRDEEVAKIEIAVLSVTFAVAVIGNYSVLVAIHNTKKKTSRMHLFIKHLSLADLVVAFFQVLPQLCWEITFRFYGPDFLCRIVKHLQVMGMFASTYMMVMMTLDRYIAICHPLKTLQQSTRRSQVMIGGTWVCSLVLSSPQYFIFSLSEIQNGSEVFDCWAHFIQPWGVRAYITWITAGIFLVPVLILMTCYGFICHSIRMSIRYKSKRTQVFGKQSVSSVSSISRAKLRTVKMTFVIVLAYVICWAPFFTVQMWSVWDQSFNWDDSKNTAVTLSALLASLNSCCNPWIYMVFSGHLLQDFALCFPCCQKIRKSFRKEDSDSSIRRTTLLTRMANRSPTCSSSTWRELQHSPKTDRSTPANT
Protocol: as §1, §2

Avpr1ab = target: T3, Avpr1ab (Danio rerio, UniProt A0A8M1P6E3); experiment: Inositol phosphate accumulation assay, antagonism of 1 μM zVP at Avpr1ab; format: cell-based, zebrafish; settings: stimulated with agonist; antagonist up to 1 μM
T3 sequence (A0A8M1P6E3 1-410): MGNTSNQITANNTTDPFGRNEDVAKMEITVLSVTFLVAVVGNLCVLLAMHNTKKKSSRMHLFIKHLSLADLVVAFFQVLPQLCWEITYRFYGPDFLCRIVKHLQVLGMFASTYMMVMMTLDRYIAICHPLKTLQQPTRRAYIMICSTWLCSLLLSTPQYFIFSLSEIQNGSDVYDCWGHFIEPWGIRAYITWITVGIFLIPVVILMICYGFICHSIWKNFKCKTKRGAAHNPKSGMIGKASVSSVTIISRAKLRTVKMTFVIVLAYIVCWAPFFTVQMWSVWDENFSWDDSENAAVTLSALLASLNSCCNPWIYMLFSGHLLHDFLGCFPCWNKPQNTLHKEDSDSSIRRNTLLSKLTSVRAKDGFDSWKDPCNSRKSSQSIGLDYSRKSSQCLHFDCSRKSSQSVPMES
Protocol: as §1, §2

**Q.** With `Cc1ccccc1N1CCN(S(=O)(=O)C[C@]23CC[C@H](C[C@@H]2NC(=O)[C@@H](N)CCS(C)(=O)=O)C3(C)C)CC1` [L-368,899] as the compound, how does the “Behavioural effects one hour after treatment” value (rodents) read?
**A.** robust behavioural effects

**Q.** What about the “Antagonism at Oxtrl, in words” value (Oxtrl) of the same compound?
**A.** able to block zVP activation; also recorded: specifically inhibited; also recorded: potently antagonised

**Q.** What about the “Inhibition of the OT receptor in mammals” value (OT receptor) of the same compound?
**A.** specifically inhibit the mammalian OT receptor

**Q.** What about the “Antagonism at Avpr1aa, in words” value (Avpr1aa) of the same compound?
**A.** did not block the response; also recorded: without reducing the effect of the peptide agonist

**Q.** And the “Antagonism at Avpr1ab, in words” value (Avpr1ab)?
**A.** did not block the response and not and without reducing the effect of the peptide agonist
